Tests used:
CLK2 kinase = CLK2 kinase (Homo sapiens, UniProt P49760); experiment: CLK2 kinase activity assay (Z-lyte FRET); type: biochemical; conditions: Z-lyte Ser/Thr 6 peptide, 60 μM ATP, 1 h at room temperature;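 also: FRET read-out as coumarin to fluorescein emission ratio, unphosphorylated peptide as 0% and phosphorylated peptide as 100% controls, duplicate reactions, non-linear regression fit of dose-response curves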
CLK3 kinase = CLK3 kinase (Homo sapiens, UniProt P49761); experiment: CLK3 kinase activity assay (Z-lyte FRET); type: biochemical; conditions: Z-lyte Ser/Thr 18 peptide, 156 μM ATP, 1 h at room temperature;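 also: kinase activity read as coumarin/fluorescein emission ratio by FRET, unphosphorylated peptide as 0% and phosphorylated peptide as 100% control, values from non-linear regression of dose-response curves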
[1] = system: Wnt pathway activity (SW480 colon carcinoma cells stably expressing the Sp5-Luc reporter); experiment: Wnt pathway activity screening assay (Sp5-Luc reporter gene assay); conditions: Homo sapiens, SW480, Table 4; SW480 cells stably expressing Sp5-Luc reporter, 10-point dose-response from 10 μM, 36 to 48 hours
[2] = system: primary human mesenchymal stem cells (hMSCs); experiment: Chondrogenesis screening using primary human mesenchymal stem cells; type: cell-based; conditions: Homo sapiens, Mesenchymal stem cells, hMSC chondrogenesis; for Emax: maximum activity relative to TGF-β3 (10 ng/mL) positive control, read-out: Max. Activity as % TGF-β3 activity; for EC50: concentration required to induce 50% levels of chondrogenesis with TGF-β3 as positive control, read-out: Conc (nM) of 50% TGF-β3 activity
How it was run: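 Derived values are EC50 for 50% chondrogenesis, maximal activity and the dose giving it. These come from nodule area in passage 3–6 primary hMSCs, expressed as fold change over the mean of 3 same-plate DMSO wells, 2–3 replicates per concentration. TGF-β3 served as positive control.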

Chain of CLK2 kinase (P49760 whole entry): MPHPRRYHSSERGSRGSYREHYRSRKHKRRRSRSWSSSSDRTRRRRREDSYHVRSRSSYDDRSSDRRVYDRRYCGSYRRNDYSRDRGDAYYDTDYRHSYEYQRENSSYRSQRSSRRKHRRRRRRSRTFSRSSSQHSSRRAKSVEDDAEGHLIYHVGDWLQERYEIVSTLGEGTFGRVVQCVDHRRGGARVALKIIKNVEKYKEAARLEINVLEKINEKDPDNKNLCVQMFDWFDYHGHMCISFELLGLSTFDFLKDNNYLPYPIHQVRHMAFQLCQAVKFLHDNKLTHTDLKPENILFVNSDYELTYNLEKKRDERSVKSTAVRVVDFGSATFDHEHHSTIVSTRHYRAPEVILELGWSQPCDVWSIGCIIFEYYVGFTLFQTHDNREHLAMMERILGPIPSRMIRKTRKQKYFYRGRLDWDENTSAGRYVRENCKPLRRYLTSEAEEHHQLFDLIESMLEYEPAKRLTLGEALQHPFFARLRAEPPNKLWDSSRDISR
Chain of CLK3 kinase (P49761 whole entry): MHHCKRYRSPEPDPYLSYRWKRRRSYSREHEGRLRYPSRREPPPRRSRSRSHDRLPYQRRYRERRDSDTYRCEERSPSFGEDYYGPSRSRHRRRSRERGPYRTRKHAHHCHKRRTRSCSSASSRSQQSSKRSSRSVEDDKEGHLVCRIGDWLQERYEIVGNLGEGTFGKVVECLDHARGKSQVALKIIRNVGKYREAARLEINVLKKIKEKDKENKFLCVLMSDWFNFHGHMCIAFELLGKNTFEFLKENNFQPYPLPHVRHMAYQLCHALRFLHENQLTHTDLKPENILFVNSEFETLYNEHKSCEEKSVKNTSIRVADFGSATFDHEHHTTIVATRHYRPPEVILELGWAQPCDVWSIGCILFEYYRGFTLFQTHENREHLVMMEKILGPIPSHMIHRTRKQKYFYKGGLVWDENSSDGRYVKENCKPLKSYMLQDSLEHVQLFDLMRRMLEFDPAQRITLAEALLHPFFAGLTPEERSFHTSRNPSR

SMILES	EC50 (CLK2 kinase) [nM]	EC50 (CLK3 kinase) [nM]	EC50 [1] [nM]	Emax [2] [%]	EC50 [2] [nM]
Nc1cncc(-c2ccc3[nH]nc(-c4cc5c(-c6ccccn6)ccnc5[nH]4)c3c2)c1 [compound 407]	3	19	22.4	46.1	
O=C(CC1CCNCC1)Nc1cncc(-c2ccc3[nH]nc(-c4cc5c(-c6ccccn6)cccc5[nH]4)c3n2)c1 [compound 408]	2	32	1440	8.03	
FC1(F)CCN(Cc2cncc(-c3ccc4[nH]nc(-c5cc6c(-c7ccccn7)cccc6[nH]5)c4n3)c2)C1 [compound 409]	5	142	432	81.9	10
c1cncc(-c2ccc3[nH]nc(-c4cc5cnccc5[nH]4)c3c2)c1 [compound 410]	1	15	40	342	
c1cncc(-c2cnc3[nH]nc(-c4cc5cccnc5[nH]4)c3c2)c1 [compound 411]	5	351	1060	11	
c1cncc(-c2cc3c(-c4cc5cnccc5[nH]4)n[nH]c3cn2)c1 [compound 412]	2	88	133	62	30
c1cncc(-c2cc3c(-c4cc5cccnc5[nH]4)n[nH]c3cn2)c1 [compound 413]	4	5490	> 10000	27.6	
c1cncc(-c2ccc3[nH]nc(-c4cc5cccnc5[nH]4)c3n2)c1 [compound 414]	3	1360	> 10000	65.9	10
Cc1ccncc1-c1ccc2[nH]nc(-c3cc4ccncc4[nH]3)c2c1 [compound 415]	1	31	191	161	
Cc1ccncc1-c1cc2c(-c3cc4cnccc4[nH]3)n[nH]c2cn1 [compound 416]	3	61	389	61.4	10
Nc1cncc(-c2ccc3[nH]nc(-c4cc5cccnc5[nH]4)c3c2)c1 [compound 417]	3	73	102	35.5	
CCC(=O)Nc1cncc(-c2cnc3[nH]nc(-c4cc5cnccc5[nH]4)c3c2)c1 [compound 418]	2	41	960	16.9	
CC(C)C(=O)Nc1cncc(-c2cc3c(-c4cc5cnccc5[nH]4)n[nH]c3cn2)c1 [compound 419]	1	16	399	61.2	30
CCCCC(=O)Nc1cncc(-c2ccc3[nH]nc(-c4cc5cccnc5[nH]4)c3c2)c1 [compound 420]	11	344	324	34.1	
CCCCC(=O)Nc1cncc(-c2cnc3[nH]nc(-c4cc5cnccc5[nH]4)c3c2)c1 [compound 421]	3	83	1470	30.8	
CCCCC(=O)Nc1cncc(-c2cc3c(-c4cc5cnccc5[nH]4)n[nH]c3cn2)c1 [compound 422]	3	54	3570	49.9	
CC(C)CC(=O)Nc1cncc(-c2cc3c(-c4cc5cccnc5[nH]4)n[nH]c3cn2)c1 [compound 423]	21	6210	> 10000	40.4	

SMILES	EC50 (CLK2 kinase) [nM]	EC50 (CLK3 kinase) [nM]	EC50 [1] [nM]	Emax [2] [%]	EC50 [2] [nM]
CC(C)(C)CC(=O)Nc1cncc(-c2cnc3[nH]nc(-c4cc5cnccc5[nH]4)c3c2)c1 [compound 424]	2	47	605	7.07	
CC(C)(C)CC(=O)Nc1cncc(-c2cc3c(-c4cc5cnccc5[nH]4)n[nH]c3cn2)c1 [compound 425]	3	56	1890	58.8	10
O=C(Nc1cncc(-c2cc3c(-c4cc5cnccc5[nH]4)n[nH]c3cn2)c1)C1CC1 [compound 426]	5	88	1540	58.5	30
O=C(Nc1cncc(-c2cc3c(-c4cc5cccnc5[nH]4)n[nH]c3cn2)c1)C1CC1 [compound 427]	9	9840	> 10000	17.7	
O=C(Nc1cncc(-c2ccc3[nH]nc(-c4cc5cnccc5[nH]4)c3c2)c1)C1CCC1 [compound 428]	2	19	75	213	
O=C(Nc1cncc(-c2ccc3[nH]nc(-c4cc5cccnc5[nH]4)c3c2)c1)C1CCCC1 [compound 429]	9	365	271	30.2	
O=C(Nc1cncc(-c2ccc3[nH]nc(-c4cc5ccncc5[nH]4)c3n2)c1)C1CCCC1 [compound 430]	7	147	2630	50.3	30
O=C(Nc1cncc(-c2cnc3[nH]nc(-c4cc5cccnc5[nH]4)c3c2)c1)C1CCCCC1 [compound 432]	17	2970	1260	28.5	
O=C(Nc1cncc(-c2cc3c(-c4cc5cnccc5[nH]4)n[nH]c3cn2)c1)C1CCCCC1 [compound 433]	3	62	1620	59.4	30
O=C(Cc1ccccc1)Nc1cncc(-c2ccc3[nH]nc(-c4cc5cnccc5[nH]4)c3c2)c1 [compound 434]	5	189	1760	119	
O=C(Nc1cncc(-c2cnc3[nH]nc(-c4cc5cnccc5[nH]4)c3c2)c1)c1ccccc1 [compound 435]	2	46	> 10000	69.9	30
O=C(Nc1cncc(-c2cc3c(-c4cc5cnccc5[nH]4)n[nH]c3cn2)c1)c1ccccc1 [compound 437]	2	62	580	152	10
CCNCc1cncc(-c2ccc3[nH]nc(-c4cc5ccccc5[nH]4)c3c2)c1 [compound 438]	4	269	395	532	10
CCNCc1cncc(-c2ccc3[nH]nc(-c4cc5cnccc5[nH]4)c3c2)c1 [compound 439]	2	49	1040	317	
CCNCc1cncc(-c2ccc3[nH]nc(-c4cc5cccnc5[nH]4)c3n2)c1 [compound 440]	3	562	3760	79.9	10
CN(C)c1cncc(-c2cc3c(-c4cc5cnccc5[nH]4)n[nH]c3cn2)c1 [compound 441]	5	538	3060	101	300
CN(C)Cc1cncc(-c2ccc3[nH]nc(-c4cc5cnccc5[nH]4)c3n2)c1 [compound 442]	3	101	1140	119	30
